In article PMC7127791 (Bioorganic & Medicinal Chemistry Letters, 2016):
“Also recorded” adds a separate entry of the source.

Columns and labels:
HEL cells = experiment: Cytotoxicity; conditions: human embryonic lung fibroblast cells; microscopy
Vero cells = experiment: Cytotoxicity; conditions: minimal cytotoxic concentration by microscopical inspection
HeLa cells = experiment: Cytotoxicity; conditions: HeLa cervix carcinoma cells; microscopy
MDCK cells = experiment: Cytotoxicity; conditions: Madin-Darby canine kidney cells; microscopy
Reovirus-1 = experiment: organism not typed; assay type: cell-based; conditions: Vero, read-out: Antiviral EC50 Reovirus-1
Para-influenza-3 virus = experiment: organism not typed; assay type: cell-based, Parainfluenza-3 virus; conditions: Vero, read-out: Antiviral EC50 Para-influenza-3 virus
[1] = test system: broad and diverse panel of DNA and RNA viruses; assay type: cell-based
Punta Toro virus [2] = assay type: cell-based
[3] = test system: Rift Valley fever virus (MP-12 strain); assay type: cell-based
Punta Toro virus [4] = assay type: cell-based; remark: listed apart in the source
other cell lines tested = experiment: Cytotoxicity in the other mammalian cell lines tested; conditions: 100 μM compound concentration; cell lines other than Vero, HEL and MT4
varicella zoster virus = conditions: human

| SMILES | Cytotoxicity MCC HEL (HEL cells) [µM] | Cytotoxicity MCC (Vero cells) [µM] | Cytotoxicity MCC HeLa (HeLa cells) | Cytotoxicity MCC MDCK (MDCK cells) [µM] | EC50 (Reovirus-1) [µM] | EC50 (Para-influenza-3 virus) [µM] | other results |
| --- | --- | --- | --- | --- | --- | --- | --- |
| CCOC(=O)C1=C(C)NC(=O)NC1CC(C)C (centres unmarked) [Compound 4l, Ethyl 6-methyl-4-(2-methylpropyl)-2-oxo-1,2,3,4-tetrahydropyrimidine-5-carboxylate] | >100 | >100 | >100 µM | >100 |  |  |  |
| CCOC(=O)C1=C(C)NC(=O)NC1 [Compound 4j, Ethyl 6-methyl-2-oxo-1,2,3,4-tetrahydropyrimidine-5-carboxylate] |  |  | >100 µM | >100 |  |  |  |
| NC(=O)c1ncn([C@@H]2O[C@H](CO)[C@@H](O)[C@H]2O)n1 [Ribavirin, reference compound] |  | >250 |  |  | > 250 |  |  |
| CCOC(=O)C1C2NC(=O)NC1(C)Oc1ccccc12 (centres unmarked) [Compound 5, Ethyl 9-methyl-11-oxo-8-oxa-10,12-diazatricyclo[7.3.1.0^2,7]trideca-2,4,6-triene-13-carboxylate] | >100 | >100 | >100 µM | >100 | > 100 | > 100 |  |
| CCOC(=O)C1=C(C)NC(=O)NC1C (centres unmarked) [Compound 4k, Ethyl 4,6-dimethyl-2-oxo-1,2,3,4-tetrahydropyrimidine-5-carboxylate] |  |  | >100 µM | >100 |  |  |  |
| CCOC(=O)C1=C(C)NC(=O)NC1c1ccccc1Cl (centres unmarked) [Compound 4b, Ethyl 4-(2-chlorophenyl)-6-methyl-2-oxo-1,2,3,4-tetrahydropyrimidine-5-carboxylate] | >100 | >100 | >100 µM | >100 | > 100 | > 100 | antiviral activity against the virus panel (in words) [1]: no antiviral activity |
| CCCCCCCCCCCC1NC(=O)NC(C)=C1C(=O)OCC (centres unmarked) [Compound 4m, Ethyl 6-methyl-2-oxo-4-undecyl-1,2,3,4-tetrahydro-5-pyrimidinecarboxylate] | 100 |  | >100 µM | >100 | > 100 | > 100 | activity against Punta Toro virus (in words) (Punta Toro virus [2]): selective and potent inhibitor; also recorded: selective and potent antiviral activity; also recorded: potent and selective inhibitor; times more potent than dextran sulphate (DS-10000) (Punta Toro virus [2]): approximately 7 times; times more potent than mycophenolic acid (Punta Toro virus [2]): approximately 7 times; activity against Rift Valley fever virus (in words) [3]: negligible; reduction in RVFV-induced CPE [3]: about 40%; 50% inhibition of RVFV at 100 μM (in words) ([3]; 100 μM): unable to achieve 50% inhibition; activity against PTV in HeLa cells (in words) (Punta Toro virus [4]): inactive; antiviral activity against the virus panel (in words) [1]: did not have antiviral activity against all other viruses tested; toxicity in the other cell lines tested (in words) (other cell lines tested): no toxicity |
| CCOC(=O)C1=C(C)NC(=O)NC1/C=C/c1ccccc1 (centres unmarked) [Compound 4h, Ethyl 6-methyl-2-oxo-4-[(E)-2-phenylethenyl]-1,2,3,4-tetrahydropyrimidine-5-carboxylate] | >100 | 100 | ⩾100 μM | >100 | > 100 | > 100 | MCC reported with the varicella zoster virus EC50 (varicella zoster virus): 100 µM |
| CCOC(=O)C1=C(C)NC(=O)NC1c1cccs1 (centres unmarked) [Compound 4i, Ethyl 6-methyl-2-oxo-4-(thiophen-2-yl)-1,2,3,4-tetrahydropyrimidine-5-carboxylate] |  |  | >100 µM | >100 |  |  |  |
| CCOC(=O)C1=C(C)NC(=O)NC1c1ccc(O)cc1 (centres unmarked) [Compound 4e, Ethyl 4-(4-hydroxyphenyl)-6-methyl-2-oxo-1,2,3,4-tetrahydropyrimidine-5-carboxylate] | >100 | >100 | >100 µM | >100 | > 100 | > 100 |  |
| CCOC(=O)C1=C(C)NC(=O)NC1c1ccc(N(C)C)cc1 (centres unmarked) [Compound 4g, Ethyl 4-[4-(dimethylamino)phenyl]-6-methyl-2-oxo-1,2,3,4-tetrahydropyrimidine-5-carboxylate] | >100 | 100 | >100 µM | >100 |  |  |  |
